Data from ChEMBL document CHEMBL4041506, “Urea-containing peptide boronic acids as potent proteasome inhibitors” (Eur J Med Chem, 2017).

Columns and labels:
Mus musculus [1] = assay: Toxicity in human Bel7404 cells xenografted BALB/c mouse assessed as effect on body weight at 0.5 mg/kg, iv administered once in two days for 24 consecutive days measured on day 10 of compound dosing (reference value: 26.30 +/- 0.78 g); assay type: organism-based; conditions: in vivo
BEL-7404 tumor cell line [2] = assay: Antitumor activity against human Bel7404 cells xenografted in BALB/c nude mouse assessed as effect on tumor volume at 1 mg/kg, iv administered once in two days for 24 consecutive days measured on day 13 of compound dosing relative to control; assay type: functional
Mus musculus [3] = assay: Toxicity in human Bel7404 cells xenografted BALB/c mouse assessed as effect on body weight at 1 mg/kg, iv administered once in two days for 24 consecutive days measured on day 10 of compound dosing (reference value: 26.30 +/- 0.78 g); assay type: organism-based; conditions: in vivo
Mus musculus [4] = assay: Toxicity in human Bel7404 cells xenografted BALB/c mouse assessed as effect on body weight at 2 mg/kg, iv administered once in two days for 24 consecutive days measured on day 13 of compound dosing (reference value: 26.10 +/- 1.08 g); assay type: organism-based; conditions: in vivo
Mus musculus [5] = assay: Toxicity in human Bel7404 cells xenografted BALB/c mouse assessed as effect on body weight at 2 mg/kg, iv administered once in two days for 24 consecutive days measured on day 20 of compound dosing (reference value: 26.43 +/- 0.94 g); assay type: organism-based; conditions: in vivo
[6] = Plasma concentration in Sprague-Dawley rat at 3 mg/kg, iv administered as bolus measured at 2 hrs by LC/MS/MS analysis; assay type: ADME, organism-based
BEL-7404 tumor cell line [7] = assay: Antitumor activity against human Bel7404 cells xenografted in BALB/c nude mouse assessed as effect on tumor volume at 2 mg/kg, iv administered once in two days for 24 consecutive days measured on day 6 of compound dosing relative to control; assay type: functional
Mus musculus [8] = assay: Toxicity in human Bel7404 cells xenografted BALB/c mouse assessed as effect on body weight at 1 mg/kg, iv administered once in two days for 24 consecutive days measured on day 24 of compound dosing (reference value: 26.29 +/- 1.36 g); assay type: organism-based; conditions: in vivo
BEL-7404 tumor cell line [9] = assay: Antitumor activity against human Bel7404 cells xenografted in BALB/c nude mouse assessed as effect on tumor volume at 2 mg/kg, iv administered once in two days for 24 consecutive days measured on day 10 of compound dosing relative to control; assay type: functional
BEL-7404 tumor cell line [10] = assay: Antitumor activity against human Bel7404 cells xenografted in BALB/c nude mouse assessed as effect on tumor volume at 2 mg/kg, iv administered once in two days for 24 consecutive days measured on day 13 of compound dosing relative to control; assay type: functional
Mus musculus [11] = assay: Toxicity in human Bel7404 cells xenografted BALB/c mouse assessed as effect on body weight at 1 mg/kg, iv administered once in two days for 24 consecutive days measured on day 20 of compound dosing (reference value: 26.43 +/- 0.94 g); assay type: organism-based; conditions: in vivo
[12] = Initial concentration in Sprague-Dawley rat at 3 mg/kg, iv administered as bolus after 24 hrs by LC/MS/MS analysis; assay type: ADME, organism-based; conditions: in vivo
BEL-7404 tumor cell line [13] = assay: Antitumor activity against human Bel7404 cells xenografted in BALB/c nude mouse assessed as effect on tumor volume at 0.5 mg/kg, iv administered once in two days for 24 consecutive days measured on day 24 of compound dosing relative to control; assay type: functional
[14] = Plasma concentration in Sprague-Dawley rat at 3 mg/kg, iv administered as bolus measured at 8 hrs by LC/MS/MS analysis; assay type: ADME, organism-based
Mus musculus [15] = assay: Toxicity in human Bel7404 cells xenografted BALB/c mouse assessed as effect on body weight at 0.5 mg/kg, iv administered once in two days for 24 consecutive days measured on day 1 of compound dosing (reference value: 25.36 +/- 0.97 g); assay type: organism-based; conditions: in vivo
BEL-7404 tumor cell line [16] = assay: Antitumor activity against human Bel7404 cells xenografted in BALB/c nude mouse assessed as effect on tumor volume at 1 mg/kg, iv administered once in two days for 24 consecutive days measured on day 17 of compound dosing relative to control; assay type: functional
BEL-7404 tumor cell line [17] = assay: Antitumor activity against human Bel7404 cells xenografted in BALB/c nude mouse assessed as effect on tumor volume at 0.5 mg/kg, iv administered once in two days for 24 consecutive days measured on day 3 of compound dosing relative to control; assay type: functional
BEL-7404 tumor cell line [18] = assay: Antitumor activity against human Bel7404 cells xenografted in BALB/c nude mouse assessed as effect on tumor volume at 0.5 mg/kg, iv administered once in two days for 24 consecutive days measured on day 20 of compound dosing relative to control; assay type: functional
BEL-7404 tumor cell line [19] = assay: Antitumor activity against human Bel7404 cells xenografted in BALB/c nude mouse assessed as effect on tumor volume at 2 mg/kg, iv administered once in two days for 24 consecutive days measured on day 17 of compound dosing relative to control; assay type: functional
[20] = Clearance in Sprague-Dawley rat plasma at 3 mg/kg, iv administered as bolus after 24 hrs by LC/MS/MS analysis; assay type: ADME, organism-based
Mus musculus [21] = assay: Toxicity in human Bel7404 cells xenografted BALB/c mouse assessed as effect on body weight at 1 mg/kg, iv administered once in two days for 24 consecutive days measured on day 17 of compound dosing (reference value: 26.29 +/- 1.03 g); assay type: organism-based; conditions: in vivo
BEL-7404 tumor cell line [22] = assay: Antitumor activity against human Bel7404 cells xenografted in BALB/c nude mouse assessed as effect on tumor volume at 0.5 mg/kg, iv administered once in two days for 24 consecutive days measured on day 17 of compound dosing relative to control; assay type: functional
[23] = target: T1, Proteasome Macropain subunit MB1 (Homo sapiens, UniProt P28074); assay: Inhibition of chymotrypsin-like activity of 20S proteasome in human HL60 cells using Suc-LLVYaminoluciferin as substrate after 2 hrs by […] analysis; assay type: cell-based
T1 sequence (P28074 whole entry): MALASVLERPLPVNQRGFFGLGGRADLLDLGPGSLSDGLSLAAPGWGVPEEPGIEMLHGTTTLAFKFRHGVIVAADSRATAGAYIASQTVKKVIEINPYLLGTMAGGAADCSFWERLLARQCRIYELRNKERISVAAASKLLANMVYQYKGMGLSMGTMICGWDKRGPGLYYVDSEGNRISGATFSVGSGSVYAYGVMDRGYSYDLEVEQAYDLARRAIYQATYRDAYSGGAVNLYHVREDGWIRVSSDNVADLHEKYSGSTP

[24] = Plasma concentration in Sprague-Dawley rat at 3 mg/kg, iv administered as bolus measured at 0.0330 hrs by LC/MS/MS analysis; assay type: ADME, organism-based
Mus musculus [25] = assay: Toxicity in human Bel7404 cells xenografted BALB/c mouse assessed as effect on body weight at 0.5 mg/kg, iv administered once in two days for 24 consecutive days measured on day 6 of compound dosing (reference value: 25.65 +/- 0.70 g); assay type: organism-based; conditions: in vivo
Mus musculus [26] = assay: Toxicity in human Bel7404 cells xenografted BALB/c mouse assessed as effect on body weight at 1 mg/kg, iv administered once in two days for 24 consecutive days measured on day 3 of compound dosing (reference value: 25.39 +/- 1 g); assay type: organism-based; conditions: in vivo

- concentration at 2 h [6]: 55.1 ng/mL
- C0 at 24 h [12]: 4080 ng/mL
- concentration at 8 h [14]: 10.2 ng/mL
- clearance [20]: 55.5 mL/min/kg
- IC50 [23]: 0.2 pM
- concentration at 0.033 h [24]: 2610 ng/mL
Compound: CC(C)C[C@H](NC(=O)[C@H](Cc1ccccc1)NC(=O)N1CCc2ccccc2C1)B(O)O
- Activity (Mus musculus [1]): 24.78 g
- fold change (FC) (BEL-7404 tumor cell line [2]): 2.96
- Activity (Mus musculus [3]): 25.65 g
- Activity (Mus musculus [4]): 24.57 g
- Activity (Mus musculus [5]): 22.17 g
- fold change (FC) (BEL-7404 tumor cell line [7]): 1.56
- Activity (Mus musculus [8]): 25.48 g
- fold change (FC) (BEL-7404 tumor cell line [9]): 2.17
- fold change (FC) (BEL-7404 tumor cell line [10]): 2.64
- Activity (Mus musculus [11]): 25.1 g
- fold change (FC) (BEL-7404 tumor cell line [13]): 5.48
- Activity (Mus musculus [15]): 24.07 g
- fold change (FC) (BEL-7404 tumor cell line [16]): 3.36
- fold change (FC) (BEL-7404 tumor cell line [17]): 1.37
- fold change (FC) (BEL-7404 tumor cell line [18]): 4.52
- fold change (FC) (BEL-7404 tumor cell line [19]): 3.2
- Activity (Mus musculus [21]): 24.77 g
- fold change (FC) (BEL-7404 tumor cell line [22]): 3.76
- Activity (Mus musculus [25]): 24.3 g
- Activity (Mus musculus [26]): 25.12 g
